Test results reported in patent publication US9796733B2, “Imidazo-pyrazine derivatives useful as soluble guanylate cyclase activators” (Merck Sharp & Dohme Corp., priority 2014, dated 2017).

Target: T1, sGC α1/β1 heterodimer (Homo sapiens, UniProt Q02108+Q02153)
T1 construct: expressed in transfected cells; host or cells: CHO-K1 (clone #7, CHO-K1/sGC)
T1 sequence (Q02108 1-690): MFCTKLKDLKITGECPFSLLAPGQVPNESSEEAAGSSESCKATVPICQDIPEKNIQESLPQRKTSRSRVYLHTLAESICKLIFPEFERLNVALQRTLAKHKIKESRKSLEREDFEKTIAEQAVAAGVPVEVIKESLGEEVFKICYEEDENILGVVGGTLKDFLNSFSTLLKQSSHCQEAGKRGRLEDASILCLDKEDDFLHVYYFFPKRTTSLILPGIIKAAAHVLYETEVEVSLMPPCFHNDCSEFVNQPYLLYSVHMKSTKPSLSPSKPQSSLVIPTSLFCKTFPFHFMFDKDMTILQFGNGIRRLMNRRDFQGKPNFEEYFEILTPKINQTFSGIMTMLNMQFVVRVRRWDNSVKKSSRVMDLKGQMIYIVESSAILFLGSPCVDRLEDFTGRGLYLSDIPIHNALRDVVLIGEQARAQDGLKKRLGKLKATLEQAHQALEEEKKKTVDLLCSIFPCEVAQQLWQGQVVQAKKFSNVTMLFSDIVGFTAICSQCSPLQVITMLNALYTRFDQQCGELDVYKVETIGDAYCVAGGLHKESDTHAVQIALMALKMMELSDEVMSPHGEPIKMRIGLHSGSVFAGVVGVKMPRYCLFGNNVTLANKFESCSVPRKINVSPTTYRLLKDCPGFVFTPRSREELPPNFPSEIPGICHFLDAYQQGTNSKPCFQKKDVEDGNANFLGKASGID
T1 sequence (Q02153 1-619): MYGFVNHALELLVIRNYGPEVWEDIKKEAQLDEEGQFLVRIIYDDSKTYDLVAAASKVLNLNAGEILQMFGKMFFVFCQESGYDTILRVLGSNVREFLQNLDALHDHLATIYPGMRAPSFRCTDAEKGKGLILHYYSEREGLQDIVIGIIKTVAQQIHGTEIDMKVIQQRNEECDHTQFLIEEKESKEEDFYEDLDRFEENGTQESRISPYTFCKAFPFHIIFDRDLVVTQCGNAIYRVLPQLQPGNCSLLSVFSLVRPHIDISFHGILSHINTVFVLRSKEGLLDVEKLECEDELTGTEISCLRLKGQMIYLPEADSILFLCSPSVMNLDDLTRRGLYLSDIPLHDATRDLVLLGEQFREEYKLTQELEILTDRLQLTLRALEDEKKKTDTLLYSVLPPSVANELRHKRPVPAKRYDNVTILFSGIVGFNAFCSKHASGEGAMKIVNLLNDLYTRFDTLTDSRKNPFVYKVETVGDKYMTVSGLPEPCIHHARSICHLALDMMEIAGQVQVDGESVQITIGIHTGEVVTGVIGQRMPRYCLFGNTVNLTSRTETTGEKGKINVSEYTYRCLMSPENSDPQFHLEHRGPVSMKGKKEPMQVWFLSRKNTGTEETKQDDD
Test: Cell-based sGC functional assay (CASA assay): cGMP generation in CHO-K1/sGC cells, HTRF detection
Conditions: for Emax: CHO-K1, percent activation relative to standard Compound A in CHO-K1/sGC cells, read-out: % Act.; for EC50: inflection point (IP) of cGMP generation in CHO-K1/sGC cells, 4P fit, activity expressed as percentage of Compound A
Description: Biological Assay 1: Cell-Based sGC Functional Assay (CASA Assay)
sGC is a heme-containing enzyme that converts GTP to secondary messenger cGMP. Increases in cGMP levels affect several physiological processes including vasorelaxation through multiple downstream pathways. […] Heme-dependent activators (HDAs) preferentially activate sGC containing a ferrous heme group. To determine the effect of sGC activators on enzyme activity, the CASA assay was developed to monitor the generation of cGMP in a cell line that stably expresses the heterodimeric sGC protein.
A CHO-K1 cell line stably expressing the sGC α1/β1 heterodimer was generated using a standard transfection protocol. CHO-K1 cells were transfected with plasmids pIREShyghsGCal and pIRESneo-hsGCβ1 simultaneously using FUGENE reagent. Clones that stably express both subunits were selected with hygromycin and neomycin for 2 weeks. Clone #7 was chosen for the assay and was designated CHO-K1/sGC. CHO-K1/sGC cells were maintained in F-K12 medium containing 10% heat-inactivated Fetal Bovine Serum (FBS), 100 μg/mL penicillin/streptomycin, 0.5 mg/mL hygromycin and 0.25 mg/mL G418. The cells were then cryopreserved in LN2. On the day of the assay, cells thawed and resuspended in EBSS Assay Buffer (Sigma, E3024) supplemented with 5 mM MgCl2, 10 mM HEPES (4-(2-hydroxyethyl)piperazine-1-ethanesulfonic acid) and 0.05% BSA (bovine serum albumin) (EAB) and cell density was then adjusted to 4×10^5/mL with EAR IBMX (3-isobutyl-1-methylxanthin, 0.5 mM) was added to inhibit degradation of cGMP. Compounds were diluted from DMSO stock solutions and added to the assay at a final DMSO concentration of 2.5%. Cells were incubated with compounds in the presence and absence of 1 μM of Diethylenetriamine/nitric oxide adduct (DETA-NO; Sigma, 17018) for 1 hr at 37° C. At the end of the incubation period, the reaction was terminated and the cells were lysed with the detection reagents from Cisbio Kits. The level of intracellular cGMP was determined using an HTRF-based assay kit (CisBio, 62GM2PEC), which detects the displacement of a fluorescence labeled cGMP from its specific antibody. The cGMP produced by test compounds was directly compared to the maximum cGMP production (this value was set to equal 100% activation.) of the published sGC-HDA Compound A:
[drawing 597] (Example 1 in WO 2010/065275, published Jun. 10, 2010). The test compounds' activities were then expressed as a percentage of Compound A, the standard in every experiment. This percent activation was calculated either in the presence or absence of DETA-NO which was then plotted. IP and maximum fold induction was derived using ADA analysis software for 4P fit.
The compounds in the Examples of the instant invention had inflection points (IP) less than or equal to 10 μM and more particularly less than or equal to about 1 μM.

With `Cc1cncc(C2(C3CC3)C(=O)Nc3nc(-c4cn5ccnc5c(CCCC(F)(F)F)n4)nc(N)c32)n1` (single isomer, unassigned) [Example 365B, 4-amino-5-cyclopropyl-5-(6-methylpyrazin-2-yl)-2-(8-(4,4,4-trifluorobutyl)imidazo[1,2-a]pyrazin-6-yl)-5H-pyrrolo[2,3-d]pyrimidin-6(7H)-one] the Emax was 108% and the EC50 was 704 nM.

For `CCCCc1nc(-c2nc(N)c3c(n2)NC(=O)C3(C)c2ccc(C(F)(F)F)cn2)cn2c(C)cnc12` (centres unmarked) [Example 167B, 4-amino-2-(8-butyl-3-methylimidazo[1,2-a]pyrazin-6-yl)-5-methyl-5-(5-(trifluoromethyl)pyridin-2-yl)-5H-pyrrolo[2,3-d]pyrimidin-6(7H)-one], the Emax was 99% and the EC50 was 41 nM.

For `CNc1nc(-c2cn3ccnc3c(CCC(F)(F)C(F)(F)F)n2)nc2c1C(C)(c1ccc(F)cc1)C(=O)N2` (centres unmarked) [Example 307A, 5-(4-fluorophenyl)-5-methyl-4-(methylamino)-2-(8-(3,3,4,4,4-pentafluorobutyl)imidazo[1,2-a]pyrazin-6-yl)-5H-pyrrolo[2,3-d]pyrimidin-6(7H)-one], the Emax was 93% and the EC50 was 152 nM.

For `COc1ccc(C2(C3CC3)C(=O)Nc3nc(-c4cn5ccnc5c(CCC(F)(F)C(F)(F)F)n4)nc(N)c32)nc1` (single isomer, unassigned) [Example 337A, 4-amino-5-cyclopropyl-5-(5-methoxypyridin-2-yl)-2-(8-(3,3,4,4,4-pentafluorobutyl)imidazo[1,2-a]pyrazin-6-yl)-5H-pyrrolo[2,3-d]pyrimidin-6(7H)-one], the Emax was 189% and the EC50 was 486 nM.

For `CC1(c2ccc(Cl)cn2)C(=O)Nc2nc(-c3cn4ccnc4c(Cc4ccc(F)cc4)n3)nc(N)c21` (centres unmarked) [Example 107A, 4-amino-5-(5-chloropyridin-2-yl)-2-(8-(4-fluorobenzyl)imidazo[1,2-a]pyrazin-6-yl)-5-methyl-5H-pyrrolo[2,3-d]pyrimidin-6(7H)-one], the Emax was 171% and the EC50 was 86 nM.

For `CCC1(c2ccc(F)cn2)C(=O)Nc2nc(-c3cn4ccnc4c(Cc4ccc(F)cc4)n3)nc(N)c21` (centres unmarked) [Example 106A, 4-amino-5-ethyl-2-(8-(4-fluorobenzyl)imidazo[1,2-a]pyrazin-6-yl)-5-(5-fluoropyridin-2-yl)-5H-pyrrolo[2,3-d]pyrimidin-6(7H)-one], the Emax was 83% and the EC50 was 252 nM.

Compound `Nc1nc(-c2cn3ccnc3c(CCC(F)(F)F)n2)nc2c1C(c1ccc(C(F)(F)F)cn1)(C1CC1)C(=O)N2` (centres unmarked) [Example 340A, 4-amino-5-cyclopropyl-5-(5-(trifluoromethyl)pyridin-2-yl)-2-(8-(3,3,3-trifluoropropyl)imidazo[1,2-a]pyrazin-6-yl)-5H-pyrrolo[2,3-d]pyrimidin-6(7H)-one] has an Emax of 129% and an EC50 of 808 nM.

`CCc1cnc2c(CCC(F)(F)C(F)(F)F)nc(-c3nc(N)c4c(n3)NC(=O)C4(C)c3ccc(F)cc3)cn12` (centres unmarked) [Example 161A, 4-amino-2-(3-ethyl-8-(3,3,4,4,4-pentafluorobutyl)imidazo [1,2-a]pyrazin-6-yl)-5-(4-fluorophenyl)-5-methyl-5H-pyrrolo[2,3-d]pyrimidin-6(7H)-one] showed an Emax of 76% and an EC50 of 354 nM.

`CC1(c2ccccc2)C(=O)Nc2nc(-c3cn4ccnc4c(Cc4cccc(F)c4)n3)nc(N)c21` (centres unmarked) [Example 101B, 4-amino-2-(8-(3-fluorobenzyl)imidazo[1,2-a]pyrazin-6-yl)-5-methyl-5-phenyl-5H-pyrrolo[2,3-d]pyrimidin-6(7H)-one] gave an Emax of 116% and an EC50 of 34 nM.

`Nc1nc(-c2cn3ccnc3c(CCC(F)(F)C(F)(F)F)n2)nc2c1C(c1ccccn1)(C1CC1)C(=O)N2` (centres unmarked) [Example 382B, 4-Amino-5-cyclopropyl-2-(8-(3,3,4,4,4-pentafluorobutyl)imidazo[1,2-a]pyrazin-6-yl)-5-(pyridin-2-yl)-5H-pyrrolo[2,3-d]pyrimidin-6(7H)-one] gave an Emax of 149% and an EC50 of 453 nM.

In the case of `Nc1nc(-c2cn3cc(C(F)(F)F)nc3c(Cc3ccccc3F)n2)nc2c1C(C(=O)NC1CC1)(C1CC1)C(=O)N2` (centres unmarked) [Example 45A, 4-amino-N,5-dicyclopropyl-2-(8-(2-fluorobenzyl)-2-(trifluoromethyl)imidazo[1,2-a]pyrazin-6-yl)-6-oxo-6,7-dihydro-5H-pyrrolo[2,3-d]pyrimidine-5-carboxamide], the Emax is reported as 86% and the EC50 is reported as 668 nM.

`CC1(c2ccc(F)cc2)C(=O)Nc2nc(-c3cn4ccnc4c(Cc4ccccc4)n3)nc(N)c21` (centres unmarked) [Example 93A, 4-amino-2-(8-benzylimidazo[1,2-a]pyrazin-6-yl)-5-(4-fluorophenyl)-5-methyl-5H-pyrrolo[2,3-d]pyrimidin-6(7H)-one] was tested, and the Emax was 109% and the EC50 was 12 nM.

In the case of `CC1(c2ccccc2)C(=O)Nc2nc(-c3cn4cc(C5CC5)nc4c(CCC(F)(F)C(F)(F)F)n3)nc(N)c21` (centres unmarked) [Example 158B, 4-amino-2-(2-cyclopropyl-8-(3,3,4,4,4-pentafluorobutyl)imidazo [1,2-a]pyrazin-6-yl)-5-methyl-5-phenyl-5H-pyrrolo[2,3-d]pyrimidin-6(7H)-one], the Emax is reported as 109% and the EC50 is reported as 296 nM.

`CCCCc1nc(-c2nc(N)c3c(n2)NC(=O)C3(c2ccc(Cl)cc2)C2CCC2)cn2ccnc12` (single isomer, unassigned) [Example 358B, 4-amino-2-(8-butylimidazo[1,2-a]pyrazin-6-yl)-5-(4-chlorophenyl)-5-cyclobutyl-5H-pyrrolo[2,3-d]pyrimidin-6(7H)-one] was tested, and the Emax was 120% and the EC50 was 20 nM.

Work on `CC1(c2ccccc2)C(=O)Nc2nc(-c3cn4c(Cl)cnc4c(CCC(F)(F)C(F)(F)F)n3)nc(N)c21` (centres unmarked) [Example 256B, 4-amino-2-(3-chloro-8-(3,3,4,4,4-pentafluorobutyl)imidazo [1,2-a]pyrazin-6-yl)-5-methyl-5-phenyl-5H-pyrrolo[2,3-d]pyrimidin-6(7H)-one] yielded an Emax of 86% and an EC50 of 24 nM.

With `CC1(C)C(=O)Nc2nc(-c3cn4ccnc4c(Cc4cccc(Cl)c4)n3)nc(N)c21` [Example 74, 4-amino-2-(8-(3-chlorobenzyl)imidazo[1,2-a]pyrazin-6-yl)-5,5-dimethyl-5H-pyrrolo[2,3-d]pyrimidin-6(7H)-one] the Emax was 94% and the EC50 was 138 nM.
